Measurements from patent publication EP1001930B1, “N-HYDROXYFORMAMIDE DERIVATIVES AS INHIBITORS OF MATRIX METALLOPROTEINASES” (Abbott Laboratories, priority 1997, dated 1999).

Molecular target: T1, Recombinant truncated stromelysin (human sequence) (Homo sapiens, UniProt P08254)
T1 construct: made in house; host or cells: E. coli
Assay: Determination of stromelysin inhibition (cleavage of thiopeptide ester substrate, DTNB colour read at 405 nm)
Type: biochemical
Settings: substrate Ac-Pro-Leu-Gly-[2-mercapto-4-methylpentanoyl]-Leu-Gly-OEt; 30 minute assay at ambient temperature; 50 mM MES/NaOH pH 6.5 with 10 mM CaCl2 and 0.2% Pluronic F-68
Protocol: The efficacy of the compounds of this invention as matrix metalloproteinase inhibitors was determined by measuring the inhibition of stromelysin. The inhibition of stromelysin by the compounds of this invention was determined as follows: Recombinant truncated stromelysin (human sequence) produced in E. coli was prepared by expression and purification of the protein as described by Ye et al. (Biochemistry, 1992, 31, 11231-11235, which is incorporated herein by reference). The enzyme was assayed by its cleavage of the thiopeptide ester substrate Ac-Pro-Leu-Gly-[2-mercapto-4-methylpentanoyl]-Leu-Gly-OEt as described by Weingarten and Feder (Anal. Biochem., 1985, 147, 437-440 (1985), which is incorporated herein by reference) as a substrate of vertebrate collagenase. The reported conditions were modified to allow assays to be carried out in a microtiter plate. Upon hydrolysis of the thioester bond, the released thiol group reacted rapidly with 5,5'-dithio-bis(2-nitrobenzoic acid) (DTNB) to produce a yellow color which was measured by a microtiter plate reader set at 405 nm. The rates of cleavage of the substrate by stromelysin in the presence or absence of inhibitors were measured in a 30 minute assay at ambient temperature. Solutions of the compounds in DMSO were prepared, and these were diluted at various concentrations into the assay buffer (50 mM MES/NaOH pH 6.5 with 10 mM CaCl2 and 0.2% Pluronic F-68), which was also used for dilution of the enzyme and substrate. The potency of the compounds [IC50] was calculated from the inhibition/inhibitor concentration data.

T1 sequence (P08254 100-272 limits assumed): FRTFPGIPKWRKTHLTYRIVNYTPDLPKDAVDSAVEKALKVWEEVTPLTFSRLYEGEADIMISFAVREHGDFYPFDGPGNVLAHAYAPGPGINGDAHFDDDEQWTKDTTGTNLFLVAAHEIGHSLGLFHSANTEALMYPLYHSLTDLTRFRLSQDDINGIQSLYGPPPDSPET

Structure (SMILES)	IC50 [nM]
CCCCC(COc1ccc(-c2ccc(C#N)cc2)cc1)N(O)C=O (racemic) [Example 9, (±)-N-[1-[[(4'-cyano-[1,1'-biphenyl]-4-yl)oxy]methyl]pentyl]-N-hydroxyformamide]	100
N#Cc1ccc(-c2ccc(OCC(CN3C(=O)c4ccccc4C3=O)N(O)C=O)cc2)cc1 (racemic) [Example 3, (±)-N-[1-[[(4'-cyano-[1,1'-biphenyl]-4-yl)oxy]methyl]-2-(2,3-dihydro-1,3-dioxo-1H-isoindol-2-yl)ethyl]-N-hydroxyformamide]	21
N#Cc1ccc(-c2ccc(OCC(Cc3ccc(F)cc3)N(O)C=O)cc2)cc1 (racemic) [Example 12, (±)-N-[1-[[(4'-cyano-[1,1'-biphenyl]-4-yl)oxy]methyl]-2-(4-fluorophenyl)ethyl]-N-hydroxyformamide]	180
CCC(C)C(COc1ccc(-c2ccc(C#N)cc2)cc1)N(O)C=O (racemic) [Example 8, (± )-N-[1-[[(4'-cyano-[1,1'-biphenyl]-4-yl)oxy]methyl]-2-methylbutyl]-N-hydroxyformamide]	170
Cc1ccc(CC(COc2ccc(-c3ccc(C#N)cc3)cc2)N(O)C=O)cc1 (racemic) [Example 10, (±)-N-[1-[[(4'-cyano-[1,1'-biphenyl]-4-yl)oxy]methyl]-2-(4-methylphenyl)ethyl]-N-hydroxyformamide]	1500
N#Cc1ccc(-c2ccc(OCCN(O)C=O)cc2)cc1 [Example 15]	620

Continued by falling IC50, values first:

IC50 [nM]	Structure (SMILES)
4000	CC(=O)N(O)CCOc1ccc(-c2ccc(C#N)cc2)cc1 [Example 14, N-[2-[(4'-cyano-[1,1'-biphenyl]-4-yl)oxy]ethyl]-N-hydroxyacetamide]
310	CC(COc1ccc(-c2ccc(C#N)cc2)cc1)N(O)C=O (racemic) [Example 13, (±)-N-[1-[[(4'-cyano-[1,1'-biphenyl]-4-yl)oxy]methyl]ethyl]-N-hydroxyformamide]
300	N#Cc1ccc(-c2ccc(OCC(c3ccc(F)cc3)N(O)C=O)cc2)cc1 (racemic) [Example 11, (±)-N-[2-[(4'-cyano-[1,1'-biphenyl]-4-yl)oxy]-1-(4-fluorophenyl)ethyl)-N-hydroxyformamide]
130	N#Cc1ccc(-c2ccc(OCC(COc3ccccc3)N(O)C=O)cc2)cc1 (racemic) [Example 1, (±)-N-[1-[[(4'-cyano-[1,1'-biphenyl]-4-yl)oxy]methyl]-2-phenoxyethyl]-N-hydroxyformamide]
36	N#Cc1ccc(-c2ccc(OCC(CSc3ccccc3)N(O)C=O)cc2)cc1 (racemic) [Example 2, (±)-N-[1-[[(4'-cyano-[1,1'-biphenyl]-4-yl)oxy]methyl]-2-(phenylthio)ethyl]-N-hydroxyformamide]
30	CCCCC(COc1ccc(-c2cccc(CC#N)c2)cc1)N(O)C=O (racemic) [Example 6, (±)-N-[1-[[[3'-(cyanomethyl)-[1,1'-biphenyl]-4-yl]oxy]methyl]pentyl]-N-hydroxyformamide]
